PEG10k = poly(ethylene glycol) of 10 kD conjugated to the peptide; PEG2k = PEG 2k (PEG2k-maleimide); Mal = maleimide
What was measured:
[1] = test system: G1498 siRNA; experiment: SYBR-gold dye displacement assay of peptide binding to siRNA, with Scatchard analysis; conditions: for Bmax (Scatchard Analysis) / Kd (Scatchard Analysis) / Max Bound siRNA: siRNA 10 μg/mL; for Max Bound siRNA: peptide:siRNA charge ratio 0.05 to 10; for Relative affinity of binding to siRNA: comparison within Table 7
Protocol: Peptides (see Table 4, Example 2) are suspended in Hyclone nuclease free water. Test dilutions of this peptide stock are made in sterile, Nuclease-free eppendorf tubes at a 2× final concentration and buffered to pH 7.4 with 20 mM Phosphate. Nine concentrations of each peptide were made, corresponding to charge ratios of approximately 0.05 to 10. The molar ratios and μg/mL and μM concentrations of each peptide corresponding to these charge ratios are detailed in Tables 1, 2 and 3.
SYBR-gold nucleic acid binding dye stock, a 10,000× concentrate, is supplied by Invitrogen (Carlsbad, Calif.) and stored at −20° C. The concentrate is allowed to equilibrate to room temperature before diluting 1 to 100 in Hyclone nuclease free water. This is then diluted 1 to 10 in the experimental plate for a final concentrate of 10× for the assay. This is the optimal dilution to achieve linear binding to siRNA duplex at a concentration range of up to 50 μg/mL concentration. For higher concentrations, the amount of dye to use may be further optimized.
Samples are mixed directly in the 384 well analysis plate. First 5 μL SYBR-gold dye is pipetted into each well with a multichannel pipette, touching the tip to the bottom of the well to draw out the solution completely. Then 22.5 μL of 2× peptide solution is added with a single channel pipette. Since SYBR-gold will not bind to peptide (and peptide samples without siRNA will verify this assumption), there will be no bleaching effect on fluorescence. Finally, 22.5 μL of 2× siRNA is added with a multichannel pipette. The plate is covered immediately with foil and tapped gently to mix and draw down any droplets on the side of the well.
Fluorescence is measured using the SpectraMax fluorescent plate reader from Molecular Devices (Sunnyvale, Calif.). Plate settings include shaking before reading, one read per well, with excitation wavelength of 495 nm and emission wavelength of 537 nm. The plate is read within 30 minutes of the addition of the siRNA.
Scatchard Plot is a plot of peptide binding ([peptide]bound/[peptide]free) vs. [peptide]bound. The slope of the linear regression of this plot is −1/Kd and Bmax is the […]. Since the concentration of free and bound peptide cannot be measured directly, indirect measurements of siRNA is used for the calculation. Free siRNA is determined from measured fluorescence using the standard curve. Bound siRNA is determined from the standard curve by mass balance from the known initial siRNA concentration (10 μg/mL). Bound peptide is calculated from bound siRNA by assuming the (siRNA:Peptide) bound molar ratio is equal to the (siRNA:Peptide) charge ratio for a single molecule pairing. From this calculated bound peptide amount, the free peptide is calculated by mass balance.
The relative binding of various peptides to siRNA via a rapid screen is assessed by indirect measurement of the displacement of SYBR-gold nucleic acid binding dye. A buffered mixture of siRNA, peptide and SYBR-gold is prepared in the measurement plate in duplicate such that the peptide and SYBR-gold dye undergoes simultaneous competitive binding of the siRNA. The concentration of siRNA is fixed at 10 μg/mL and is combined with a titration of each peptide ranging in a concentration that corresponds to a peptide:siRNA charge ratio between 0.05 to 10. Since SYBR-gold dye only fluoresces when bound to siRNA, peptide binding to the siRNA is inhibits binding of the dye and consequently reduces the fluorescence. Therefore, the amount of fluorescence correlates inversely to the binding of the peptide to the siRNA.

[2] = test system: 9L/LacZ cells; experiment: Cellular uptake of peptide/siRNA condensates (fluorescence intensity); assay type: cell-based; conditions: study 2; NT peptides at 100 nM, N/P=2 with pluronic F127; PN0593/PN0594 at varying N/P
Protocol: Cells are plated per well in 24-well plates the day before transfection in complete media. The siRNA is labeled, for example with Cy-5 conjugate. The peptide/siRNA condensates are added to cells previously washed with phosphate buffered saline (PBS). Cells were transfected for three hours at 37° C., 5% CO2. Cells were washed with PBS, treated with trypsin, and then analyzed by flow cytometry.
siRNA cell-uptake was measured by the intensity of intracellular Cy5 fluorescence. The cell-uptake assay is used to determine the percentage of cells that contain the Cy5-conjugated siRNA. Mean Fluorescence Intensity (MFI) is used to determine the relative mean quantity of Cy5-conjugated siRNA that entered the cells.

[3] = Particle size analysis of siRNA/peptide polymer formulations; assay type: physicochemical; conditions: 24 hours after formulation, siRNA 0.8 μM/peptide polymers, N/P=2
Protocol: Formulations for particle size analysis were prepared in Hepes 11 mM pH7.4, at a siRNA concentration of 0.8 uM (11.59 μg/ml) and then diluted into OPTI-MEM. For nanoparticle size analysis of siRNA/peptide polymers, we used 1 ug RNA/0.8 nmols peptide polymer (based on monomer). The total vol of sample was 1 ml containing 50 ug RNA and 40 nmol peptide polymer in Hepes buffer mannitol (5 mM HEPES, 5% mannitol, pH 7.5) (Filter). The particle size analysis was performed on a Zeta Plus/Zeta potential analyzer.
Briefly, buffer was added first and then concentrated siRNA was added followed by votexing for 3 seconds (at full speed). The peptide polymer was then added followed by votexing for an additional 6 seconds (at full speed). Formulations were maintained at room temperature for 10 minutes. In a 96-well plate format, formulations were then diluted 20× for a final siRNA concentration of 10 nM (6.25 μl into 118.75 μl of OPTI-MEM) or 2× for a final concentration of 100 nM (62.5 μl of formulation into 62.5 μl OPTI-MEM). After dilution, formulations were mixed gently. For positive control preparation, 0.5 μl of HiPerFect was diluted into 12.5 μl of OPTI-MEM and 0.5 μl of siRNA into 12.5 μl of OPTI-MEM, respectively; and incubated at room temperature for 5 minutes, and then combined diluted siRNA and diluted HiPerFect, and incubated at room temperature for 15 minutes. A formulation pH of about 7.4 was chosen in order to minimize reduction of peptide that is polymerized through cycteine disulfide bonds.
Particle size was measured 24 hours after formulation of siRNA 0.8 μM/peptide polymers (N/P=2). […] In summary, all formulation tested in this study formed particles at about or less than about 100 nm.

[4] = Glutathione (GSH) mediated siRNA release from disulfide cross-linked peptide siRNA particles; assay type: physicochemical; conditions: 5 ug siRNA/4 nmols peptide polymer, GSH 0.5 mg
Protocol: In a separate experiment, glutathione (GSH) was added to disulfide cross-linked peptide siRNA particles (which may be referred to as nanoparticles) in order to detect siRNA release from disulfide cross-linked peptide siRNA condensates. The reduction of the peptide polymers, leading to dissociation and release of siRNA was monitored by continues measurement of the fluorescence intensity of […] over 15 minutes. Briefly, siRNA nanoparticles (N/P: 5 ug siRNA/4 nmols peptide polymer) were treated with reducing agent glutathione (GSH, 0.5 mg scale) and thiazole orange (0.1 ug) in 1 ml sample in HBM buffer pH 7.5. The fluorescence intensity was monitored over 15 min at Ex 498 nm and Emi 546 nm. Samples tested were (1) siRNA and Thiazole orange (No peptide polymer, No GSH), (2) Peptide polymer, siRNA and Thiazole orange (No GSH), and (3) Peptide polymer, siRNA, Thiazole orange and GSH.

[5] = test system: 9L/LacZ cells; experiment: Micro BCA total protein assay (toxicity); assay type: cell-based; conditions: study 1, 100 nM, N/P=2
Protocol: For study 1 and 2, 7,000-10,000 9L/LacZ cells (passage 5-25) were plated in cell culture media in each well of a 96-well plate and grown overnight. Cells (in 75 μl of media) were transfected by adding 25 μl of each formulation to be tested; 4 hours thereafter 100 μl of fresh media is added to each well, which media is replaced with 100 μl of fresh media approximately 16 hours later. […] Cells were harvested 3 days after transfection by the addition of 50 μl of lysis buffer for β-galactosidase and Micro BCA assays.
For study 1 and 2, a Micro BCA assay (Pierce Chemical Company, Rockford, Ill.) was performed in order to measure total protein concentration, as follows: 9L/LacZ cells were washed 1× with phosphate buffered saline (PBS). Then, 50 μl of M-PER® Reagent was added to each well and incubated for 15 minutes at room temperature. After incubation, 10 μl of each lysate was transferred to a new well (using a 96-well plate format) containing 140 μl of dH20, and then 150 μl of Micro BCA working solution was added. The plates were covered, incubated at 37° C. for 2 hours and then the absorbance measured at 562 nm was recorded.

[6] = test system: Lac-Z; conditions: study 2, 100 nM, N/P=2, 0.1% pluronic F127
Protocol: The LacZ assay was performed three days post-transfection. Cells were rinsed with phosphate buffers saline (PBS) after removal of cell media. The PBS was aspirated and the cells were lysed by the addition of 50 μl M-PER™ to each well and incubating the cells for 15 minutes while gently shaking. Following cell lysis, 10 μl of cell lysate was removed from each well to perform a total protein assay (micro BCA kit, Pierce). In order to measure LacZ activity, 30 μl of cell lysate was transferred to a new plate and 30 μl of ALL-IN-ONE™ beta-galactosidase (β-gal) was added to each well of the new plate. The new plate was covered to avoid light exposure and incubated for 30 minutes at 37° C. Following the 30 minute incubation, the absorbance was read at 405 nm with a μQuant plate reader (Bio-Trek Instrument) to measure LacZ activity.
For study 1 and 2, 7,000-10,000 9L/LacZ cells (passage 5-25) were plated in cell culture media in each well of a 96-well plate and grown overnight. […]
For study 1 and 2, a Micro BCA assay (Pierce Chemical Company, Rockford, Ill.) was performed in order to measure total protein concentration, as follows: 9L/LacZ cells were washed 1× with phosphate buffered saline (PBS). […] The plates were covered, incubated at 37° C. for 2 hours and then the absorbance measured at 562 nm was recorded. […]

| Bmax (Scatchard Analysis) [1] | Kd (Scatchard Analysis) [1] | Max Bound siRNA [1] | Substance | Uptake [2] | Particle size [3] | other results |
| --- | --- | --- | --- | --- | --- | --- |
| 2.077 μMbound/μMfree | 0.150 µM⁻¹ | 59% mole % | PEG2k-Mal-(Lys)25-amide [PN0925-2] |  |  |  |
|  |  |  | NH2-VRLPPPVRLPPPVRLPPP-amide (H-VRLPPPVRLPPPVRLPPP-NH2) [PN0593] | very low |  |  |
|  |  |  | Cys-Trp-(Lys)4-His-(Lys)4-Cys (CWKKKKHKKKKC) [NT-23] |  | about 65.7 nm |  |
| 0.198 μMbound/μMfree | 0.771 µM⁻¹ | 68% mole % | RRRRRRRRR [PN0861-2, Ac-(Arg)9-amide] |  |  | Relative affinity of binding to siRNA [1]: greatest affinity |
|  |  |  | Cys-Trp-(Lys)10-Cys (CWKKKKKKKKKKC) [NT-21] | good uptake | about 55.7 nm | Reduction of peptide polymer by GSH with siRNA release [4]: exception |
| 0.495 μMbound/μMfree | 0.929 µM⁻¹ | 64% mole % | RRRRRRRRRRRRRRRRRR [PN0859-2, Ac-(Arg)18-amide] |  |  | Relative affinity of binding to siRNA [1]: greatest affinity |
| 0.992 μMbound/μMfree | 0.130 µM⁻¹ | 47% mole % | PEG10k-Mal-(Lys)15-amide ({PEG10k-Mal}-KKKKKKKKKKKKKKK-NH2) [PN0931-2] |  |  |  |
|  |  |  | Cys-Trp-(Lys)8-Cys (CWKKKKKKKKC) [NT-20] | good uptake | about 67.6 nm |  |
|  |  |  | NH2-PLKPLKPLKPLKPLKPLK-amide (H-PLKPLKPLKPLKPLKPLK-NH2) [PN0594] | very low |  |  |
| 0.560 μMbound/μMfree | 0.250 µM⁻¹ | 48% mole % | PEG2k-Mal-(Lys)15-amide ({PEG2k-Mal}-KKKKKKKKKKKKKKK-NH2) [PN0930-2] |  |  |  |
|  |  |  | Cys-Trp-(Lys)4-Cys-(Lys)4-Cys (CWKKKKCKKKKC) [NT-22] |  | about 90.8 nm |  |
|  |  | 58% mole % | PEG10k-Mal-(Lys)30-amide [PN0907-2] |  |  |  |
|  |  |  | Cys-Trp-(Lys)6-Cys (CWKKKKKKC) [NT-19] | good uptake | about 78.7 nm | Toxicity (total protein expression) [5]: no apparent toxicity; Knockdown of gene expression [6]: about 27% |
| 0.241 μMbound/μMfree | 0.326 µM⁻¹ | 39% mole % | PEG2k-Mal-(Lys)10-amide ({PEG2k-Mal}-KKKKKKKKKK-NH2) [PN0933-2] |  |  |  |
|  |  |  | Cys-Trp-His-(Lys)4-His-(Lys)4-His-Cys (CWHKKKKHKKKKHC) [NT-25] |  | about 64.6 nm |  |
|  |  |  | Cys-Trp-His-(Lys)4-His-(Lys)4-Cys (CWHKKKKHKKKKC) [NT-24] |  | about 82.2 nm | Toxicity (total protein expression) [5]: no apparent toxicity |
|  |  |  | Cys-Trp-(Lys)4-Cys (CWKKKKC) [NT-18] | good uptake | about 105 nm | Toxicity (total protein expression) [5]: no apparent toxicity; Knockdown of gene expression [6]: about 20% |

| Substance | Bmax (Scatchard Analysis) [1] | Kd (Scatchard Analysis) [1] | Max Bound siRNA [1] | Uptake [2] | Particle size [3] | other results |
| --- | --- | --- | --- | --- | --- | --- |
| KKKKKKKKK [PN0860-2, Ac-(Lys)9-amide] | 0.379 μMbound/μMfree | 0.204 µM⁻¹ | 43% mole % |  |  |  |
| KKKKKKKKKKKKKKKKKKKK [PN0924-1, NH2-(Lys)20-amide] | 0.883 μMbound/μMfree | 0.426 µM⁻¹ | 71% mole % |  |  |  |
| KKKKKKKKKKKKKKKKKK [PN0858-1, Ac-(Lys)18-amide] | 0.828 μMbound/μMfree | 0.348 µM⁻¹ | 66% mole % |  |  |  |

From patent US20070269892A1, “FORMULATIONS FOR INTRACELLULAR DELIVERY dsRNA” (NASTECH PHARMACEUTICAL COMPANY INC., priority 2006, published 2007)
